This is an account of results in patent US9987299B2, “Methods of improving RNAi in well-differentiated airway epithelia” (University of Iowa Research Foundation, priority 2014, dated 2018).

In data set [1] the test system is Human HPRT mRNA. Nature of the data set: HPRT mRNA silencing by DsiRNA-Transductin in well-differentiated HAE (RT-qPCR). The format is cell-based. On the procedure:
FIG. 1. […] (a) Well-differentiated HAE cultures grown at the ALI were incubated in adding HPRT-targeting or control NC1 DsiRNA (250 nM) formulated with Transductin containing 0.1 or 0.01 mg LOS (HPRT-targeting DsiRNAs) or 0.1 mg LOS (NC1 DsiRNA). After 4 hours, the apical surface was rinsed and 24 hours later, target RNA levels quantified by RT-qPCR. All mRNA levels were normalized to NC1-treated samples. Mean levels were calculated from three biological replicates, each done in triplicate. ***p<0.001, **p<0.01 (Student's t-test). […] Samples were normalized to NC1-treated cells. ***p<0.001, **p<0.01 (Student's t-test). […] PAFRa was present throughout transfection in cells pre-treated with the reagent. Cells were harvested and RNA quantified 24 hrs later. Samples were normalized to NC1-treated cells. **p<0.01 (Student's t-test).
FIG. 3. Spiperone improves RNAi responses in DsiRNA transduced cells. HAE were pre-treated with various small molecules at the concentration indicated. The drugs were added to the apical surface and the basolateral media for 6 hours. Both surfaces were then washed and HPRT or NC1 DsiRNA formulated with Transductin added to the apical surface. The cells were washed after 4 hours, and RT-qPCR done on cell lysates harvested 24 hours later.
Human airway epithelial cells were obtained from trachea and bronchi of lungs removed for organ donation from non-CF individuals. Cells were isolated by enzyme digestion as previously described. Following enzymatic dispersion, cells were seeded at a density of 5×10^5 cells/cm^2 onto collagen-coated, 0.6 cm^2 semi permeable membrane filters (Millipore polycarbonate filters; Millipore Corp., Bedford, Mass.). The cells were maintained at 37° C. in a humidified atmosphere of 5% CO2 air. Twenty-four hours after plating, the apical media was removed and the cells were maintained at an air-liquid interface (ALI) to allow differentiation of the epithelium. The culture medium consisted of 1:1 ratio mix of Dulbecco's modified Eagle's medium (DMEM)/Ham's F12, 5% Ultroser G (Biosepra S A, Cedex, France), 100 U/ml penicillin, 100 μg/ml streptomycin, 1% nonessential amino acids and 0.12 U/ml insulin. Studies were performed on well-differentiated epithelia approximately 4 to 6 weeks after initiation of the ALI cultures conditions. HEp-2 cells were maintained in MEM substituted with 10% fetal bovine serum and 100 U/ml penicillin.
PAF was purchased from Sigma-Aldrich. The reagent was reconstituted in ethanol and used in the experiment at a concentration of 200 nM or as described in the figures. PAF was added to the transfection mixture at the apical surface as well as to the basolateral media. PAFRa (WEB 2086) was purchased from Sigma-Aldrich. […] The reagent was incubated with the cells throughout the transfection period.
All the small molecules tested were purchased from Sigma-Aldrich. The chemicals were reconstituted in appropriate solutions as recommended by the manufacturer. The epithelia were pre-treated with drugs for 6 hours at concentrations used in the CMAP study or noted in the published literature. Following drug treatment, the epithelia were transduced with DsiRNA as described above.
For well-differentiated airway epithelia, transfection was performed mostly according to the manufacturer's protocol. In all cases, the apical surface of epithelia was rinsed twice with PBS before adding the transfection mixture to the apical surface. DsiRNAs were used at a concentration of 250 nM. The mixture was left on the cells for 4 hours after which the medium was removed, the apical surface rinsed with PBS and the cells incubated further for 24 hours. For all experiments, a minimum of 3 biological replicates, in triplicate, were done.
Total RNA was isolated using SV96 RNA isolation kit (Promega, Madison, Wis.), according to manufacturer's protocol. […]
In general terms: In qPCR the cycle at which signal appears reflects the starting amount.

The conditions of data set [2]: reference [38]; cited from earlier work.
The subject of data set [3] is CFTR channel activity. In words: Transepithelial short-circuit current and conductance in HAE. The format is cell-based, human. Particulars: control epithelia with or without PAF, or PAF and NC1 treated cells; sequential addition of agents.
The subject of data set [4] is Human HPRT mRNA. Particulars: Transductin alone or combined with enhancers of macropinocytosis; reference [17]; cited from earlier work.
In data set [5] the test system is Human CFTR mRNA. Nature of the data set: CFTR mRNA silencing by CFTR DsiRNA-Transductin in well-differentiated HAE (RT-qPCR). The settings on record: CFTR DsiRNA with simultaneous PAF treatment or spiperone pre-treatment. Type of data set: cell-based. On the procedure:
(§1) FIG. 4. […] Alternatively, spiperone was applied apically and basolaterally to well-differentiated HAE for 6 hours, and then removed by rinsing before incubation for 4 hours with CFTR-targeting or NC1 DsiRNAs complexed with Transductin. In both cases, 24 hours after transfection, and RNA levels quantified by RT-qPCR. (b) A representative immunoblot from similarly treated wells, but cells were lysed and proteins visualized after immunoprecipitation with anti-CFTR antibody. Alpha-tubulin was used as a loading control. (c) Densitometry readings of immunoblots with results normalized to NC1 treated samples. In all cases, data are from 3 biological replicates and are mean±SD. ***p<0.001, **p<0.01 (Student's t-test).
For well-differentiated airway epithelia, transfection was performed mostly according to the manufacturer's protocol. […]
Total RNA was isolated using SV96 RNA isolation kit (Promega, Madison, Wis.), according to manufacturer's protocol. […] One-fifteenth of the cDNA was then amplified and analyzed by using the 5′-nuclease assay in a 7900 Real Time PCR System (Applied Biosystems, Foster city, CA) using primer-probe pairs reaction buffer and Immolase DNA polymerase (Bioline, Taunton, Mass.). […] Absolute quantification of an mRNA target sequence within an unknown sample was determined by reference to a standard curve. […]

The subject of data set [6] is CFTR protein. Nature of the data set: CFTR protein levels, immunoprecipitation and immunoblot with densitometry in HAE. Type of data set: cell-based, human. Here is the method: as §1
HAE were rinsed with PBS and lysed in RIPA buffer (1% NP-40, 0.5% sodium deoxycholate, 0.1% SDS, 50 mM Tris, protease inhibitors [complete; mini, EDTA-free; Roche Biochemicals, Indianapolis, Ind.]) for 30 minutes at 4° C. The lysate were centrifuged in a table top centrifuge at 14,000 rpm for 20 minutes at 4° C. The supernatant was quantified by BCA protein assay kit (Pierce, Rockford, Ill.). Thirty micrograms of protein per lane was separated on a 10% Tris-HCL Criterion precast gel (Bio-Rad, Hercules, Calif.) for western blot analysis. The protein was transferred to Polyvinylidene difluoride membrane and then was probed with goat anti-RSV antibody purchased from Meridian Life Sciences (Memphis, Tenn.). The membrane was imaged, and then stripped with Restore Western Blot Stripping Buffer (Thermo Scientific, Lafayette, Colo.) for 15 minutes. The membrane was rinsed with Tris-buffered saline-Tween (TBS-T) and blocked in 5% bovine serum albumin (Research Products International Corp, Mt. Prospect, Ill.). The membrane was then reprobed with α-tubulin (Sigma-Aldrich).
For orientation: A western blot detects proteins with antibodies after separation by electrophoresis.

As for `Cc1nnc2n1-c1sc(CCC(=O)N3CCOCC3)cc1C(c1ccccc1Cl)=NC2` [WEB2086], in data set [1] (1 μM PAFRa), the “inhibition of HPRT silencing in cells transduced with LOS or PAF” value is “partially inhibited”. Further, the “inhibition of HPRT silencing of LOS- or PAF-assisted transduction” value in data set [1] (100 μM PAFRa, pre- or post-treatment) is given as “completely inhibited”.

As for `CCCCCCCCCCCCCC(=O)O[C@@H]1[C@@H](C)[C@@]2(O)[C@@H](C=C(CO)C[C@]3(O)C(=O)C(C)=C[C@@H]23)[C@@H]2C(C)(C)[C@]12OC(C)=O` [phorbol ester], the “gene silencing in well differentiated HAE with Transductin-DsiRNA plus phorbol ester” value in data set [1] (applicant's unpublished data) is on record as “better silencing”. Also, the toxicity result in data set [2] was “toxic and unsuitable for repeated applications or use in vivo”.

As for `O=C(CNc1ccc2ccccc2c1)N/N=C/c1cc(Br)c(O)c(Br)c1O` [GlyH-101], the “cAMP-activated transepithelial short-circuit current (Isc and ΔIsc) and conductance (Gt)” value in data set [3] is listed as “decreased both values”.

With “epidermal growth factor (NSDSECPLSHDGYCLHDGVCMYIEALDKYACNCVVGYIGERCQYRDLKWWELR; Epidermal growth factor; UniProt P01133 971-1023, looked up) [EGF, enhancer of macropinocytosis]”, the “gene silencing in well differentiated HAE with Transductin-DsiRNA, previously observed” value in data set [4] was “very modest knockdown”.

Turning to `CC(C)Cn1c(=O)n(C)c(=O)c2[nH]cnc21` [isobutylmethylxantine (IBMX), isobutylmethylxantine], the “cAMP-activated transepithelial short-circuit current (Isc and ΔIsc) and conductance (Gt)” value in data set [3] was “increased”.

For `O=C(CCCN1CCC2(CC1)C(=O)NCN2c1ccccc1)c1ccc(F)cc1` [Spiperone], in data set [5], the “silencing of CFTR mRNA levels” value is given as “approximately 30%”. Besides, the “CFTR protein levels compared to controls” value in data set [6] (PAF or spiperone and CFTR DsiRNA-Transductin, immunoprecipitation, western blot) is “reduced CFTR protein levels”. Besides, the “fully glycosylated CFTR band C” value in data set [6] (densitometry, normalized to NC1 treated samples) is listed as “significantly decreased”. The “spiperone dose-response on silencing” value in data set [1] (increasing doses, 6 hours pretreatment (FIG. 9)) is recorded as “marginal increases in silencing with increasing doses”. Further, the “silencing of HPRT mRNA levels” value in data set [1] (spiperone 10 μM pretreatment before DsiRNA transduction) is listed as 25%.
